Experimental data reported in patent US20220105188A1, “TARGET PROTEIN EED DEGRADATION-INDUCING DEGRADUCER, PREPARATION METHOD THEREOF, AND PHARMACEUTICAL COMPOSITION FOR PREVENTING OR TREATING DISEASES RELATED TO EED, EZH2, OR PRC2, COMPRISING SAME AS ACTIVE INGREDIENT” (KOREA RESEARCH INSTITUTE OF CHEMICAL TECHNOLOGY, priority 2019, published 2022).

Target: T1, EED (Homo sapiens, UniProt O75530)
T1 construct: 2×10^5 Hela cells were injected into a 12-well plate; endogenous in cells; host or cells: HeLa
Assay: EED Proteolytic Activity Evaluation 2 (western blot, Hela cells)
Format: cell-based
Conditions: 1 nM, 10 nM, 100 nM and 1000 nM, 20 hours of treatment
Protocol: [Experiment 2] EED Proteolytic Activity Evaluation 2
In order to evaluate the EED proteolytic activity of the compound according to the present invention, an experiment was conducted as follows.
Specifically, 2×10^5 Hela cells were injected into a 12-well plate, and after 8 hours of stabilization, each well was treated with the example compounds to have final concentrations of 1 nM, 10 nM, 100 nM, and 1000 nM. One well was treated with the volume of DMSO contained in the sample corresponding to the highest concentration in the experimental group. After 20 hours of treatment, the cells were collected and lysed using 80 μl of SDS Lysis buffer (50 mM Tris pH8.0, 1% SDS, 1 mM EDTA, 0.5 mM PMSF, and protease inhibitor cocktail) and then sonication (30 sec on/59 sec off), 5 cycles) to prepare a cell lysate, followed by protein quantification through BCA, followed by Western blot, and the results are shown in Table 3. (Maximum EED degradation rate: A: >50%, B: 25-50%, C: <25%)

T1 sequence (O75530 whole entry): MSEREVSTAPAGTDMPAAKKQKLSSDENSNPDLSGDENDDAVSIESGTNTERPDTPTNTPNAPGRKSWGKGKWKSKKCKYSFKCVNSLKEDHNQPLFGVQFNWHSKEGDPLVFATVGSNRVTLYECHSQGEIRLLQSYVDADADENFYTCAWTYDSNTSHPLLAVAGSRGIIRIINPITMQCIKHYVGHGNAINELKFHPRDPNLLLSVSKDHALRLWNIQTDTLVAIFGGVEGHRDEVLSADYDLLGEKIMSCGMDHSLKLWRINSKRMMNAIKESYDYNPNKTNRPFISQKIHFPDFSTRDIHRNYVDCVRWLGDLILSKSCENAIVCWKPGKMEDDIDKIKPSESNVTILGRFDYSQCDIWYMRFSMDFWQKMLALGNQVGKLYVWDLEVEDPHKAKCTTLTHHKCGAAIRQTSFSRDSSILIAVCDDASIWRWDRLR

SMILES	EED degradation rate (Maximum EED degradation rate)
Cc1cccc(F)c1CN1C[C@H](c2ccc(N3CCN(C(=O)CC4CCN(c5ccc6c(c5)C(=O)N(C5CCC(=O)NC5=O)C6=O)CC4)CC3)cc2)[C@@H](N(C)C)C1 (stereo partly drawn) [Example 132, 5-(4-(2-(4-(4-((3S,4R)-4-(dimethylamino)-1-(2-fluoro-6-methylbenzyl)pyrrolidin-3-yl)phenyl)piperazin-1-yl)-2-oxoethyl)piperidin-1-yl)-2-(2,6-dioxopiperidin-3-yl)isoindolin-1,3-dione]	A (A: >50%)
Cc1cccc(F)c1CN1C[C@H](c2ccc(N3CCN(CCC4CCN(C(=O)CNc5cccc6c5C(=O)N(C5CCC(=O)NC5=O)C6=O)CC4)CC3)cc2)[C@@H](N(C)C)C1 (stereo partly drawn) [Example 152, 4-((2-(4-(2-(4-(4-((3S,4R)-4-(dimethylamino)-1-(2-fluoro-6-methylbenzyl)pyrrolidin-3-yl)phenyl)piperazin-1-yl)ethyl)piperidin-1-yl)-2-oxoethyl)amino)-2-(2,6-dioxopiperidin-3-yl)isoindolin-1,3-dione]	A (A: >50%)
Cc1cccc(F)c1CN1C[C@H](c2ccc(N3CCN(C(=O)CCC4CCN(C(=O)COc5cccc6c5C(=O)N(C5CCC(=O)NC5=O)C6=O)CC4)CC3)cc2)[C@@H](N(C)C)C1 (stereo partly drawn) [Example 148, 4-(2-(4-(3-(4-(4-((3S,4R)-4-(dimethylamino)-1-(2-fluoro-6-methylbenzyl)pyrrolidin-3-yl)phenyl)piperazin-1-yl)-3-oxopropyl)piperidin-1-yl)-2-oxoethoxy)-2-(2,6-dioxopiperidin-3-yl)isoindolin-1,3-dione]	A (A: >50%)
Cc1cccc(F)c1CN1C[C@H](c2ccc(N3CCN(CCC4CCN(C(=O)CNc5ccc6c(c5)C(=O)N(C5CCC(=O)NC5=O)C6=O)CC4)CC3)cc2)[C@@H](N(C)C)C1 (stereo partly drawn) [Example 136, 5-((2-(4-(2-(4-(4-((3S,4R)-4-(dimethylamino)-1-(2-fluoro-6-methylbenzyl)pyrrolidin-3-yl)phenyl)piperazin-1-yl)ethyl)piperidin-1-yl)-2-oxoethyl)amino)-2-(2,6-dioxopiperidin-3-yl)isoindolin-1,3-dione]	A (A: >50%)
Cc1cccc(F)c1CN1C[C@H](c2ccc(N3CCN(CCC4CCN(C(=O)COc5ccc6c(c5)C(=O)N(C5CCC(=O)NC5=O)C6=O)CC4)CC3)cc2)[C@@H](N(C)C)C1 (stereo partly drawn) [Example 150, 5-(2-(4-(2-(4-(4-((3S,4R)-4-(dimethylamino)-1-(2-fluoro-6-methylbenzyl)pyrrolidin-3-yl)phenyl)piperazin-1-yl)ethyl)piperidin-1-yl)-2-oxoethoxy)-2-(2,6-dioxopiperidin-3-yl)isoindolin-1,3-dione]	A (A: >50%)
Cc1cccc(F)c1CN1C[C@H](c2ccc(N3CCN(CCC4CCN(c5cccc6c5C(=O)N(C5CCC(=O)NC5=O)C6=O)CC4)CC3)cc2)[C@@H](N(C)C)C1 (stereo partly drawn) [Example 153, 4-(4-(2-(4-(4-((3S,4R)-4-(dimethylamino)-1-(2-fluoro-6-methylbenzyl)pyrrolidin-3-yl)phenyl)piperazin-1-yl)ethyl)piperidin-1-yl)-2-(2,6-dioxopiperidin-3-yl)isoindolin-1,3-dione]	A (A: >50%)
Cc1cccc(F)c1CN1C[C@H](c2ccc(N3CCN(C(=O)CCC4CCN(c5ccc6c(c5)C(=O)N(C5CCC(=O)NC5=O)C6=O)CC4)CC3)cc2)[C@H](N(C)C)C1 (stereo partly drawn) [Example 133, 5-(4-(3-(4-(4-((3S,4S)-4-(dimethylamino)-1-(2-fluoro-6-methylbenzyl)pyrrolidin-3-yl)phenyl)piperazin-1-yl)-3-oxopropyl)piperidin-1-yl)-2-(2,6-dioxopiperidin-3-yl)isoindolin-1,3-dione]	A (A: >50%)
Cc1cccc(F)c1CN1C[C@H](c2ccc(N3CCN(C(=O)CC4CCN(c5cccc6c5C(=O)N(C5CCC(=O)NC5=O)C6=O)CC4)CC3)cc2)[C@@H](N(C)C)C1 (stereo partly drawn) [Example 142, 4-(4-(2-(4-(4-((3S,4R)-4-(dimethylamino)-1-(2-fluoro-6-methylbenzyl)pyrrolidin-3-yl)phenyl)piperazin-1-yl)-2-oxoethyl)piperidin-1-yl)-2-(2,6-dioxopiperidin-3-yl)isoindolin-1,3-dione]	C (C: <25%)
Cc1cccc(F)c1CN1C[C@H](c2ccc(N3CCN(C(=O)CC4CCN(C(=O)CNc5ccc6c(c5)C(=O)N(C5CCC(=O)NC5=O)C6=O)CC4)CC3)cc2)[C@@H](N(C)C)C1 (stereo partly drawn) [Example 146, 5-((2-(4-(2-(4-(4-((3S,4R)-4-(dimethylamino)-1-(2-fluoro-6-methylbenzyl)pyrrolidin-3-yl)phenyl)piperazin-1-yl)-2-oxoethyl)piperidin-1-yl)-2-oxoethyl)amino)-2-(2,6-dioxopiperidin-3-yl)isoindolin-1,3-dione]	A (A: >50%)
O=C(CNc1ccc2nnn(C3CCC(=O)NC3=O)c(=O)c2c1)NCCOCCOCCN1CCC(n2cc(-c3cnc(NCc4ccco4)n4cnnc34)cn2)CC1 (centres unmarked) [Example 130, 2-((3-(2,6-dioxopiperidin-3-yl)-4-oxo-3,4-dihydrobenzo[d][1,2,3]triazin-6-yl)amino)-N-(2-(2-(2-(4-(4-(5-((furan-2-ylmethyl)amino)-[1,2,4]triazolo[4,3-c]pyrimidin-8-yl)-1H-pyrazol-1-yl)piperidin-1-yl)ethoxy)ethoxy)ethyl)acetamide]	C (C: <25%)

More lines, now with the values ahead:

EED degradation rate (Maximum EED degradation rate)	SMILES
B (B: 25-50%)	Cc1cccc(F)c1CN1C[C@H](c2ccc(N3CCN(C(=O)CCCNc4cccc5c4C(=O)N(C4CCC(=O)NC4=O)C5=O)CC3)cc2)[C@@H](N(C)C)C1 (stereo partly drawn) [Example 123, 4-((4-(4-(4-((3S,4R)-4-(dimethylamino)-1-(2-fluoro-6-methylbenzyl)pyrrolidin-3-yl)phenyl)piperazin-1-yl)-4-oxobutyl)amino)-2-(2,6-dioxopiperidin-3-yl)isoindolin-1,3-dione]
A (A: >50%)	Cc1cccc(F)c1CN1C[C@H](c2ccc(N3CCN(C(=O)COCCOCCOCCNC(=O)CNc4ccc5c(c4)C(=O)N(C4CCC(=O)NC4=O)C5=O)CC3)cc2)[C@@H](N(C)C)C1 (stereo partly drawn) [Example 122, N-(2-(2-(2-(2-(4-(4-((3S,4R)-4-(dimethylamino)-1-(2-fluoro-6-methylbenzyl)pyrrolidin-3-yl)phenyl)piperazin-1-yl)-2-oxoethoxy)ethoxy)ethoxy)ethyl)-2-((2-(2,6-dioxopiperidin-3-yl)-1,3-dioxoisoindolin-5-yl)amino)acetamide]
B (B: 25-50%)	Cc1cccc(F)c1CN1C[C@H](c2ccc(N3CCN(C(=O)CCCCCNc4ccc5c(c4)C(=O)N(C4CCC(=O)NC4=O)C5=O)CC3)cc2)[C@@H](N(C)C)C1 (stereo partly drawn) [Example 138, 5-((6-(4-(4-((3S,4R)-4-(dimethylamino)-1-(2-fluoro-6-methylbenzyl)pyrrolidin-3-yl)phenyl)piperazin-1-yl)-6-oxohexyl)amino)-2-(2,6-dioxopiperidin-3-yl)isoindolin-1,3-dione]
B (B: 25-50%)	Cc1cccc(F)c1CN1C[C@H](c2ccc(N3CCN(C(=O)CCCCCCCNc4ccc5c(c4)C(=O)N(C4CCC(=O)NC4=O)C5=O)CC3)cc2)[C@@H](N(C)C)C1 (stereo partly drawn) [Example 126, 5-((8-(4-(4-((3S,4R)-4-(dimethylamino)-1-(2-fluoro-6-methylbenzyl)pyrrolidin-3-yl)phenyl)piperazin-1-yl)-8-oxooctyl)amino)-2-(2,6-dioxopiperidin-3-yl)isoindolin-1,3-dione]
A (A: >50%)	Cc1cccc(F)c1CN1C[C@H](c2ccc(N3CCN(C(=O)COCCOCCNC(=O)CNc4ccc5c(c4)C(=O)N(C4CCC(=O)NC4=O)C5=O)CC3)cc2)[C@@H](N(C)C)C1 (stereo partly drawn) [Example 121, N-(2-(2-(2-(4-(4-((3S,4R)-4-(dimethylamino)-1-(2-fluoro-6-methylbenzyl)pyrrolidin-3-yl)phenyl)piperazin-1-yl)-2-oxoethoxy)ethoxy)ethyl)-2-((2-(2,6-dioxopiperidin-3-yl)-1,3-dioxoisoindolin-5-yl)amino)acetamide]
B (B: 25-50%)	Cc1cccc(F)c1CN1C[C@H](c2ccc(N3CCN(C(=O)CCCNc4ccc5c(c4)C(=O)N(C4CCC(=O)NC4=O)C5=O)CC3)cc2)[C@@H](N(C)C)C1 (stereo partly drawn) [Example 124, 5-((4-(4-(4-((3S,4R)-4-(dimethylamino)-1-(2-fluoro-6-methylbenzyl)pyrrolidin-3-yl)phenyl)piperazin-1-yl)-4-oxobutyl)amino)-2-(2,6-dioxopiperidin-3-yl)isoindolin-1,3-dione]
A (A: >50%)	Cc1cccc(F)c1CN1C[C@H](c2ccc(N3CCN(C(=O)CCC4CCN(C(=O)CNc5ccc6c(c5)C(=O)N(C5CCC(=O)NC5=O)C6=O)CC4)CC3)cc2)[C@@H](N(C)C)C1 (stereo partly drawn) [Example 140, 5-((2-(4-(3-(4-(4-((3S,4R)-4-(dimethylamino)-1-(2-fluoro-6-methylbenzyl)pyrrolidin-3-yl)phenyl)piperazin-1-yl)-3-oxopropyl)piperidin-1-yl)-2-oxoethyl)amino)-2-(2,6-dioxopiperidin-3-yl)isoindolin-1,3-dione]
